The nature of series [1]: Plasma pharmacokinetics in the xenograft mice on day 28 of treatment. It is filed as in vivo, female BALB/c nude mice. Conditions: for AUC(0-inf) / AUC(0-t) / Cmax / Tmax / half-life / MRT inf: female, BALB/c nude; for MRT inf: read-out: MRTInf_obs. From the text:
The purpose of this study was to evaluate the therapeutic efficacy of the compound of Formula (A) in combination with fulvestrant in the MCF-7 human breast cancer subcutaneous xenograft model in female BALB/c nude mice.
On the 28th day of treatment for the mice in Experiment 2, animal plasma was continuously collected for PK detection, with a total of 112 plasma samples and 16 tumor samples. PK sample sampling protocol

The subject of series [2] is MCF-7 human breast cancer subcutaneous xenograft model. The series can be described thus: Tumor inhibition in subcutaneous xenograft model. Type of series: in vivo, female BALB/c nude mice. Conditions: the compound of Formula (A) 25 mg/kg p.o. QD, Fulvestrant 5 mg/mouse s.c. QW; for Body weight Post 28 Days of Treatment: mean ± standard error; for Body weight Post 28 Days of Treatment / Tumor Volume 28 Days After Administration: n=12, x 4 weeks; for Tumor Volume 28 Days After Administration: tumor volume at grouping 204 ± 6, P <0.001 vs control; for T/C: relative tumor volume increase ratio; for T/C / TGI: day 28; for TGI: tumor growth inhibition rate. From the text:
The purpose of this study is to evaluate the therapeutic efficacy of the compound of Formula (A) in combination with fulvestrant in the MCF-7 human breast cancer subcutaneous xenograft model in female BALB/c nude mice.
BALB/c nude mice, 6-8 weeks old, female, weighing 18-20 g, were purchased from Beijing Anikeeper Biotech Co., Ltd.. The feeding environment was SPF-grade, the temperature is (23±3)°C and the humidity is 40-70%.
Solvent for the compound of Formula (A): 1,2-Propanediol (PG) : 50% Solutol HS-15 : 0.5% Hydroxypropyl Methylcellulose (HPMC) = 2 : 1 : 7.
Compound preparation methods
MCF-7 tumor cells were cultured in DMEM medium containing inactivated 15% fetal bovine serum, 100 U/mL penicillin, and 100 µg/mL streptomycin in an incubator at 37°C with 5% CO2. Tumor cells in the logarithmic growth phase were used for in vivo tumor inoculation.
One day before the inoculation of MCF-7 tumor cells, the mice were subcutaneously implanted with an estrogen tablet (0.5 mg, 90-day release period) on the left side. MCF-7 tumor cells resuspended in serum-free DMEM medium were inoculated subcutaneously into the right costal region of the experimental animals at a density of 1.5 × 10^7 cells (0.2 mL + Matrigel), with a total of 72 animals inoculated. When the tumors grew to approximately 204 mm^3, 48 animals with relatively uniform tumor volumes were selected for grouping and administration, divided into 4 groups, and administered according to the dosing schedule. Table 8. Compounds administration schedule
Tumor volume was measured twice a week using a vernier caliper. The long diameter and short diameter of the tumor were measured, and the volume was calculated using the formula: Volume = 0.5×long diameter×short diameter^2.
While measuring the tumor volume, the body weight of the mice was weighed. The relationship between the changes in the mice's body weight and the administration time was recorded. Meanwhile, the survival status and health conditions of the mice were observed, such as their general states including activity and food intake during the administration period.
Tumor Growth Inhibition Rate(TGI,%) = (1−T/C) × 100 [formula]
Statistical analysis of tumor volume between groups was performed using the statistical software SPSS 16.0 and One-Way ANOVA test. A p-value < 0.05 was considered statistically significant.

[3] abbreviates: po, analyte: the compound of Formula (A) in plasma, 25 mg/kg p.o. alone (G2) or + Fulvestrant 5 mg/mouse (G4).
Where [4] appears, read: sc, analyte: fulvestrant in plasma, 5 mg/mouse s.c. alone (G3) or + the compound of Formula (A) 25 mg/kg (G4).

Read-outs that look alike come from different tables or passages of the source.

By AUC(0-inf) is commonly meant total exposure, with the tail of the curve extrapolated. For orientation: AUC(0-t) means exposure summed from dosing to a finite time, without extrapolation to infinity. As usually defined, the Cmax is the highest concentration seen after dosing. As usually defined, the Tmax is the time at which the peak concentration occurs. What is called half-life is the time needed for the level to fall by half in the phase considered. Broadly, the T/C is the result in the treated group divided by that in the control group, in per cent. What is called TGI is the reduction of tumour growth relative to the control group. With `CC(C)NC[C@@H](C(=O)N1CCN(c2ncnc3c2[C@H](C)CC(=O)N3)[C@H]2C[C@H]21)c1ccc(Cl)cc1` [The compound of Formula (A), (R)-4-((1S,6R)-5-((S)-2-(4-chlorophenyl)-3-(isopropylamino)propanoyl)-2,5-diazabicyclo[4.1.0]heptan-2-yl)-5-methyl-5,8-dihydropyrido[2,3-d]pyrimidin-7(6H)-one], in series [1] (analyte: the compound of Formula (A) in plasma, 25 mg/kg p.o. alone (G2) or + Fulvestrant 5 mg/mouse (G4)), the AUC%Extrap_obs is recorded as 1.48%. Also, in series [1] (setting [3]), the AUC(0-inf) came to 18800 ng·h/mL, the AUC(0-t) was found to be 18500 ng·h/mL, the Cmax was 1340 ng/mL and the Tmax came to 2.75 h. Also, in series [1] (setting [3]), the half-life was 7.93 h and the MRT inf stood at 10.5 h. Also, in series [2], the “Body weight Post 28 Days of Treatment” value stood at 23.8 ± 0.5 g, the “Tumor Volume 28 Days After Administration” value came to 684 ± 65 mm^3, the T/C is 58.4% and the TGI is 41.6%.

As to `C[C@]12CC[C@@H]3c4ccc(O)cc4C[C@@H](CCCCCCCCC[S+]([O-])CCCC(F)(F)C(F)(F)F)[C@H]3[C@@H]1CC[C@@H]2O` (stereo partly shown) [Fulvestrant, reference compound], in series [1] (analyte: fulvestrant in plasma, 5 mg/mouse s.c. alone (G3) or + the compound of Formula (A) 25 mg/kg (G4)), the AUC%Extrap_obs was found to be 12.6%. In series [1] (setting [4]), the AUC(0-inf) amounted to 6610 ng·h/mL, the AUC(0-t) is 5780 ng·h/mL, the Cmax was 268 ng/mL and the Tmax is 0.375 h. In series [1] (setting [4]), the half-life is 23.6 h and the MRT inf was 37.7 h. Besides, in series [2], the “Body weight Post 28 Days of Treatment” value is on record as 25.9 ± 0.3 g, the “Tumor Volume 28 Days After Administration” value was determined as 546 ± 54 mm^3, the T/C turned out to be 46.9% and the TGI is listed as 53.1%.
